Assays:
Type in all cases: cell-based
[1] = test system: Dd2 (CQ^R) P. falciparum strain; experiment: In vitro fluorescence (Sybr Green I) growth inhibition assay, Dd2 strain; settings: Plasmodium falciparum, DD2; Table 13; growth inhibition; read-out: IC50 (nM) Dd2 (CQ^R)
Text: (§1) One exemplary method for measuring inhibitory effects of RCQ compound in vitro has been reported by Smilkstein et al. (Antimicrob. Agents Chemother., 48(5):1803-1806, 2004). This method employs fluorescent detection of the level of parasitemia in cultured red blood cells and can be automated for high-throughput screening of antimalarial RCQs. This exemplary method allows the inhibitory agent (such as a RCQ) to be in contact with the parasite for an entire developmental cycle without purine starvation, which is in contrast to the traditional ^3H-hypoxanthine method (Desjardins et al., Antimicrob. Agents Chemother., 16(6):710-718, 1979). Briefly, to perform the Smilkstein et al. method, an initial parasitemia of approximately 0.2% is attained by adding uninfected red blood cells (RBCs) to a stock culture of Plasmodium sp.-infected RBCs. […] After a period of incubation (such as about 72 hours), a sufficient amount (e.g., 100 μL) of a fluorescent DNA binding dye-detergent mixture (e.g., Sybr Green I dye-detergent mixture) to lyse cells and bind to DNA is added to the reactions. Because uninfected RBCs have no DNA, only parasite DNA (in infected RBCs) is available for binding to the fluorescent dye (e.g., Sybr Green I). Samples are then incubated in the dark for a period of time (e.g., one hour), followed by measurement of levels of fluorescence. For Sybr Green I, excitation and emission wavelength are 485 and 530 nm, respectively. Fluorescence readings, which represent the amount of parasite DNA in the sample, can be plotted against the Log [drug] and fit to a curve by nonlinear regression to obtain the IC50 value for the tested compound.
(§2) An in vitro fluorescence assay for determining IC50 of antimalarial drugs was performed as previously described by Smilkstein et al. (Antimicrob. Agents Chemother., 48(5):1803-1806, 2004). This relatively low-cost procedure can be automated for high-throughput screening of the antimalarial activities of RCQs described herein. Advantageous, this method also allows the tested agent (e.g, a RCQ) to be in contact with the parasite for an entire developmental cycle without purine starvation (which occurs with the commonly used ^3H-hypoxanthine method; see, e.g., Desjardins et al., Antimicrob. Agents Chemother., 16, (6):[…], 1979).
(§3) Briefly, an initial parasitemia of approximately 0.2% was attained by addition of uninfected red blood cells to a stock culture of cells infected with Dd2 (CQ^R) or D6 (CQ^S) P. falciparum strains. A 10 mM RCQ_02 solution (in DMSO) was prepared. RCQ_02 (at a final concentration from 10^−11 to 10^−4 M) and infected red blood cells (at a final concentration of 2% (v/v)) were mixed in 100 μL samples in individual wells of a 96-well plate. Each sample was prepared in triplicate. A triplicate set of reactions containing CQ (instead of RCQ_02) was included as a control. After a 72 hour incubation period, Sybr Green I dye-detergent mixture (100 μL) was added to each reaction. The samples were further incubated for an hour in the dark, and then placed in a 96-well fluorescence plate reader (Gemini-EM, […]) and analyzed with excitation and emission wavelength bands at 485 and 530 nm, respectively. Fluorescence readings were plotted against the Log [drug], and curve fitting performed by nonlinear regression to find the IC50 value.

[2] = test system: D6 (CQ^S) P. falciparum strain; experiment: In vitro fluorescence (Sybr Green I) growth inhibition assay, D6 strain; settings: Plasmodium falciparum, D6; Table 13; growth inhibition; read-out: IC50 (nM) D6 (CQ^S)
Text: as §1, §2, §3

[3] = target: T1, recombinant human dopamine (HEK-hDAT) transporter (Homo sapiens, UniProt Q01959); experiment: Inhibition of [3H]neurotransmitter uptake, hDAT
T1 construct: expressed in transfected cells; host or cells: HEK cells expressing hDAT (HEK-hDAT)
T1 sequence (Q01959 whole entry): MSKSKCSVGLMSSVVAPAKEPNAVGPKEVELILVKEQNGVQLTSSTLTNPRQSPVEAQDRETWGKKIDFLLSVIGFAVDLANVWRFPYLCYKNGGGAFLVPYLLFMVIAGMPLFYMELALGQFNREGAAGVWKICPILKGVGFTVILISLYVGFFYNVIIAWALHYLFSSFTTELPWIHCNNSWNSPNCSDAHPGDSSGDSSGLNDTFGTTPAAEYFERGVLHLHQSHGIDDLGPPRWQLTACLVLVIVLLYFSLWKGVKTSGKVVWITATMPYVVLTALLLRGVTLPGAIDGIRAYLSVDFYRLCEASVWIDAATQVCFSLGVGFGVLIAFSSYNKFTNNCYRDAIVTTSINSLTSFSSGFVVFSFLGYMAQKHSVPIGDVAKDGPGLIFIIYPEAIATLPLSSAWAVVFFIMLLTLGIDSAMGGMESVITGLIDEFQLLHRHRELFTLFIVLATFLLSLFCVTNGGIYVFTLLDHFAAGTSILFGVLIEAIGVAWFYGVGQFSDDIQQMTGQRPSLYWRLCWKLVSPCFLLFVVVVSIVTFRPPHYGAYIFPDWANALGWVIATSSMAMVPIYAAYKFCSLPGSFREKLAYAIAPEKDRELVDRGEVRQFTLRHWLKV
Experimental: Selected RCQs were tested for inhibition of [^3H]neurotransmitter uptake by the recombinant human serotonin (hSERT), dopamine (HEK-hDAT), and norepinephrine (hNET) transporters by a modification of the method of Eshleman et al. (J. Pharmacol. Exp. Ther., 289(2):877-885, 1999). HEK-hDAT, hSERT, and -hNET expressing cells were grown on tissue culture dishes. After removing the medium and washing the plates with Ca^2+-, Mg^2+-free phosphate buffered saline (PBS), fresh medium was added and the plates were placed in a 25° C. water bath for 5 minutes. Cells were gently lifted from the plates and cell clusters separated by trituration. 50 μL aliquots of the suspended cells were added to assay tubes containing drugs and Krebs-HEPES assay buffer in a final volume of 0.5 mL.
Competition experiments were conducted in triplicate. After a 10 minute preincubation period at 25° C., [^3H]neurotransmitter (20 nM final concentration; [^3H]DA, [^3H]5-HT, or [^3H]NE) were added, and the mixtures incubated for 10 minutes. Reactions were terminated by filtration through Wallac filtermat A filters (presoaked in 0.05% polyethylenimine), using a Tomtec cell harvester. Scintillation fluid was added to each filtered spot, and radioactivity remaining on the filters determined using a Wallac 1205 Betaplate scintillation counter.
Specific uptake was defined as the difference in uptake observed in the absence and presence of 5 μM mazindol (hDAT and hNET) or 5 μM imipramine (hSERT). Inhibition of uptake was determined by non-linear regression using Prism software.

[4] = test system: mitogen-induced murine spleen lymphocytes; settings: mouse spleen lymphocytes
Experimental: Mouse spleen lymphocytes were isolated from C57B1/6J mice by teasing tissues on a metallic sieve screen. […] Two hundred (200) μl isolated cells were then seeded in separate wells of a 96-well flat-bottom tissue culture plate at a density of 2×10^5 cells per well. […] After 72 hours incubation in a humidified atmosphere at 37° C. and 5% CO2, a solution of resazurin PBS was added to a final concentration 10 μM, and the plates were returned to the incubator for another 24 hours. Resazurin is a substrate which changes color in response to metabolic activity (such as, living cells). […] LC50 values were determined from plots of florescence versus drug concentration using non-linear regression by Prism software.

With `CN(CCCNc1ccnc2cc(Cl)ccc12)CCCN1c2ccccc2CCc2ccccc21` [RCQ_02, N′-(7-Chloro-quinolin-4-yl)-N-[3-(10,11-dihydro-dibenzo[b,f]azepin-5-yl)-propyl]-N-methyl-propane-1,3-diamine] the IC50 [1] was 5.3 nM, the IC50 [2] was 2.9 nM and the IC50 [3] was 2200 nM. For the same compound, the “Cytotoxicity” value ([4]; LC50, 72 hours + 24 hours resazurin) was 700 nM and the cytotoxicity values ([4]; Table 14) was 700 nM.
